{
  "source": "patent US6565883B2",
  "about": "“Controlled release oral compositions comprising rivastigmine” (priority 1998, dated 2003)",
  "experiment": "Rivastigmine's biopharmaceutical properties in humans",
  "type": "in vivo",
  "text": "Little has been published in detail on Rivastigmine's biopharmaceutical properties in humans. […] It is subject to pre-systemic and systemic metabolism. […] Suitable test may be effected in fasted beagle dogs.",
  "data": [
    {"smiles": "CCN(C)C(=O)Oc1cccc([C@H](C)N(C)C)c1", "note": "[Rivastigmine]", "values": [
      {"measurement": "absorption", "result": "rapidly and completely absorbed"},
      {"measurement": "metabolism", "setting": "esterases, e.g., acetyl and butyryl cholinesterase", "result": "metabolised mainly through hydrolysis by esterases"},
      {"measurement": "half-life", "setting": "human, plasma", "result": 1, "unit": "h"}
    ]}
  ]
}
